Among the data in PubChem BioAssay (NCI) are TGI and GI50 values, retold here.

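In this assay, cells in 96-well plates receive the compound at five concentrations for 48 hours. Endpoints are linearly interpolated between the surrounding concentrations. GI50 marks 50% less growth. The concentration for full growth arrest is given as TGI.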

What all share (assay): NCI tumour cell line growth inhibition, 48 h
Assay [1] deals with SK-MEL-28 melanoma.
In assay [2] the test system is CCRF-CEM leukemia.
In assay [3] the test system is NCI-H226 lung.
The test system of assay [4] is K-562 leukemia.
Assay [5] has as its system HT29 colon.
Assay [6] relates to NCI-H460 lung.
For assay [7], the system named is HCC-2998 colon.
For assay [8], the system named is A498 renal.
Assay [9] relates to CAKI-1 renal.
The test system of assay [10] is HL-60(TB) leukemia.

As to `NC(=O)C1C(=O)Oc2cccnc21` (centres undefined), the TGI in assay [1], in assay [2], in assay [3], in assay [4], in assay [5] and in assay [6] was over 100 µM each time.
Take `O=C(NCCOC(=O)CCCCCCCCC(=O)OCCNC(=O)NC(=O)c1cn(Cc2ccccc2)c(=O)[nH]c1=O)NC(=O)c1cn(Cc2ccccc2)c(=O)[nH]c1=O`: the TGI in [1], in [7], in assay [3], in assay [8], in assay [9] and in assay [10] was over 100 µM each time. Further, the TGI in assay [4], in [5] and in [6] was over 100 µM in each case.
For `CN(C)CCC(/C=C/c1ccccc1)=N\Nc1c(F)c(F)c(F)c(F)c1F`, the TGI in assay [1] was over 100 µM; in [2], over 100 µM; in assay [8], over 100 µM; in [10], 37.8 µM; in assay [4], over 100 µM; in assay [5], over 100 µM. The compound further came in with a TGI in [6] of over 100 µM.
For the compound `O=C(Cn1ccnc1[N+](=O)[O-])NCc1ccc(F)cc1`, the TGI in [1], in assay [2], in assay [3], in [8], in assay [9] and in [10] was over 100 µM each time. Besides, the TGI in [4], in [5] and in assay [6] was over 100 µM each time.
For the compound `O=C(CC/C(CC(=O)c1ccc(Cl)cc1)=N\O)Nc1cccc(Cl)c1`, the TGI in [1], in assay [7], in [2], in [8], in assay [9] and in assay [4] was over 100 µM throughout. Besides, the TGI in [5] and in [6] was over 100 µM in each case.
Take `COc1cc([C@H]2c3cc4c(cc3[C@H](NCc3ccc(F)cc3)C3COC(=O)[C@H]32)OCO4)cc(OC)c1O` (some centres undefined): the TGI in assay [1] is 37 µM; in assay [7], 23.8 µM; in assay [2] it was over 100 µM; in assay [3] it was 7.61 µM; in [8], 8.02 µM; in assay [10], 4.7 µM. In addition, the TGI in assay [4] came out at 41 µM; in assay [5], 27 µM; in [6], 12.3 µM.
With `Cc1cc2nc3c(C(OC4OC(CO)C(O)C(O)C4O)C(O)CO)nn(-c4ccc(F)cc4)c3nc2cc1C` (centres undefined), the TGI in assay [1], in assay [7], in assay [2], in assay [8], in [4] and in assay [5] was over 100 µM in each case. The TGI in assay [6] is over 100 µM.
Turning to `C=C(c1ccc(C(=O)NCCCn2ccnc2)cc1)c1cc2c(cc1C)C(C)(C)CCC2(C)C`, the GI50 in assay [1] is 1.71 µM; in assay [7], 0.419 µM; in assay [3], 2.1 µM; in assay [8], 25.2 µM; in assay [9], 1.47 µM; in assay [10] it was 1.06 µM. In addition, the GI50 in assay [4] is 0.651 µM; in assay [5], 0.509 µM; in [6] it was 0.87 µM. The TGI in assay [1] was 6.38 µM; in [7], 3.85 µM; in assay [3], 7.94 µM; in assay [8], over 100 µM; in assay [9], over 51.2 µM; in assay [10] it was 3.93 µM. Moreover, the TGI in assay [4] was over 100 µM; in assay [5] it was 6.8 µM; in assay [6], 10.5 µM.
Regarding `COc1ccc(S(=O)(=O)NNS(C)(=O)=O)cc1OC`, the TGI in assay [7], in assay [2], in assay [3], in assay [8], in assay [9] and in assay [10] was over 100 µM each time. Besides, the TGI in assay [4], in assay [5] and in assay [6] was over 100 µM throughout.
As to `CSc1ccc2c(c1)N(CCCN(C)C)c1ccccc1S2`, the TGI in assay [1] came to 6.7 µM; in assay [2], 23.4 µM; in [3] it was 43.2 µM; in [8], 24.6 µM; in assay [9], 21.2 µM; in assay [10] it was 31.3 µM. Further, the values for the TGI in assay [4], in assay [5] and in assay [6] were 17 µM, 21.1 µM and 26.5 µM, respectively.
As to `Cc1ccc(/C=C2\CCCC(C(NO)c3ccc(C)cc3)C2=NO)cc1` (centres undefined), the TGI was 67.7 µM in assay [1]; 62 µM in assay [7]; 49.8 µM in [2]; over 100 µM in assay [8]; over 100 µM in [9]; 40.1 µM in [10]. Also, the TGI in assay [4] was over 100 µM; in assay [5], 37.9 µM; in assay [6], 62.6 µM.
Consider `O=C([CH-]C(=O)c1ccccc1)c1ccccc1.[CH2-]C.[CH2-]C.[Tl+3]`, for which the GI50 in assay [1] is 33.5 µM; in assay [7] it was 28.7 µM; in [3], 0.0266 µM; in assay [8] it was 48.9 µM; in [9] it was 27.2 µM; in [10] it was 2.99 µM. For the same compound, the GI50 in [4] is 9.92 µM; in [5], 26 µM; in assay [6], 10.8 µM. Further, the TGI in [1] was over 100 µM; in assay [7], over 100 µM; in [3], 2.38 µM; in [8], over 100 µM; in assay [9], over 96.3 µM; in assay [10] it was 21.6 µM. In addition, the TGI in assay [4] is 59.6 µM; in assay [5], over 100 µM; in assay [6], over 100 µM.
Regarding `Cc1ccc(-n2cc(/C(N)=N/O)c3ccccc3c2=O)cc1`, the TGI in assay [1], in assay [7], in [2], in assay [3], in assay [10] and in [4] was over 100 µM each time. In addition, the TGI in assay [5] and in assay [6] was over 100 µM throughout.
As for `COc1cc(COC(=O)N(C)[C@@H](Cc2ccccc2)C(=O)O)c([N+](=O)[O-])cc1OC`, the TGI in assay [7], in [2], in assay [3], in [10], in assay [4] and in assay [5] was over 100 µM each time. Besides, the TGI in [6] is over 100 µM.
As to `C=C(/C=C/C=C(\CO)CCC=C(C)C)[C@H]1CCC2([C@H](CCCO)/C(=C(/C)C=O)CC[C@]2(C)O)[C@H]1O` (some centres undefined), the TGI in [1], in [7], in assay [2], in [8], in assay [9] and in assay [10] was over 100 µM in each case. The TGI in assay [4], in assay [5] and in assay [6] was over 100 µM in each case.
Take `Cc1cccc(NC(=O)CSc2nnc(-c3ccc(N=Cc4ccc(Cl)cc4)cc3)o2)c1`: the TGI in [1], in assay [2], in [3], in assay [10], in assay [4] and in assay [5] was over 100 µM in each case. For the same compound, the TGI in assay [6] is over 100 µM.
Turning to `CC[C@]1(O)C[C@@H]2CN(CCc3c([nH]c4ccccc34)[C@@](C(=O)OC)(c3cc4c(cc3OC)N(C)[C@H]3[C@@](O)(C(=O)OC)[C@H](OC(=O)CCCBr)[C@]5(CC)C=CCN6CC[C@]43[C@@H]65)C2)C1`, the GI50 in [7] was 0.0132 µM; in [2] it was 0.0232 µM; in assay [3], 5.87 µM; in assay [8], under 0.0114 µM; in [9], under 0.0206 µM; in assay [4], under 0.01 µM. Moreover, the GI50 in [5] is under 0.01 µM; in assay [6], 0.0245 µM. For the same compound, the TGI in assay [7] was 1.31 µM; in assay [2], over 100 µM; in [3], 99.7 µM; in assay [8] it was under 0.0258 µM; in [9], 2.12 µM; in [4], over 100 µM. Moreover, the TGI in assay [5] and in assay [6] was over 100 µM each time.
Regarding `CNC(=O)N(CCCCC(NC(C)=O)C(=O)NCc1ccccc1)Cc1ccccc1` (centres undefined), the TGI in assay [1], in assay [7], in assay [2], in [3], in [8] and in assay [9] was over 100 µM each time. The TGI in assay [4], in assay [5] and in [6] was over 100 µM throughout.
For `c1ccc2c(c1)n1nnnc1c1nnnn21`, the TGI in assay [1], in [7], in [2], in assay [3], in [8] and in assay [9] was over 100 µM in each case. In addition, the TGI in assay [4], in assay [5] and in assay [6] was over 100 µM in each case.
`Cc1cc(N(CCC#N)CCC#N)ccc1/C=C1N=C(/C=C\c2ccccc2)N(c2ccc(C(=O)O)cc2)C\1=O`: the TGI in assay [1], in assay [2], in [3], in [8], in assay [9] and in [10] was over 100 µM throughout. In addition, the TGI in [4], in [5] and in [6] was over 100 µM throughout.
Consider `O=S1(=O)CS(=O)(=O)OCCCCCO1`, for which the TGI in assay [1], in [7], in assay [2], in assay [3], in assay [8] and in assay [9] was over 100 µM in each case. The TGI in [4], in [5] and in [6] was over 100 µM throughout.
With `COc1ccc(C2C(C(=O)O)=C(COC(C)=O)Oc3cc4c(cc32)OCO4)c(OC)c1` (centres undefined), the TGI in [1], in [2], in assay [9], in assay [10], in [4] and in assay [5] was over 100 µM each time. The same compound returned a TGI in [6] of over 100 µM.
Take `COc1cc2c(cc1OC)C(Sc1ccc(Cl)cc1)c1c(nc(N)c(C#N)c1N)O2` (centres undefined): the GI50 was 1.57 µM in [1]; 1.72 µM in assay [7]; 0.311 µM in [2]; 1.73 µM in [8]; 0.578 µM in assay [10]; 0.791 µM in assay [4]. Further, the GI50 in [5] was 1.88 µM; in [6], 1.65 µM. The TGI worked out at 3.11 µM in [1]; 3.25 µM in assay [7]; 2.63 µM in assay [2]; 5.01 µM in assay [8]; 3.73 µM in assay [10]; 8.28 µM in [4]. Also, the results for the TGI in [5] and in assay [6] were 4.12 µM and 3.74 µM, respectively.
As to `CCOc1ccc(N=Nc2c(-c3ccccc3)nn(C(=O)CC(=O)Nc3ccccc3Cl)c2-c2ccccc2)cc1`, the TGI in [1], in [7], in assay [2], in assay [3], in assay [9] and in assay [10] was over 100 µM each time. In addition, the TGI in assay [4], in assay [5] and in assay [6] was over 100 µM in each case.
Take `Cc1cn([C@H]2CN(O)C[C@@H](CO)O2)c(=O)[nH]c1=O`: the TGI in assay [1], in [7], in assay [3], in assay [8], in [9] and in [10] was over 100 µM throughout. For the same compound, the TGI in assay [4] and in assay [6] was over 100 µM each time.
As for `COc1ccc(C2NC(c3ccc(OC)cc3)C(C)C(=O)C2C)cc1` (centres undefined), the TGI in [1], in [7], in [2], in [8], in assay [10] and in [4] was over 100 µM each time. For the same compound, the TGI in assay [5] and in assay [6] was over 100 µM throughout.
